According to ChEMBL document CHEMBL1157415, “Isolation, structure elucidation, and synthesis of cytotoxic tryptanthrin analogues from Phaius mishmensis” (J Nat Prod, 2008):

What was measured:
Format in all cases: functional, cell-based
MCF7 = experiment: Cytotoxicity against human MCF7 cells
NCI-H460 = experiment: Cytotoxicity against human NCI-H460 cells
SF-268 = experiment: Cytotoxicity against human SF268 cells

Row | Compound | IC50 (MCF7; Homo sapiens, MCF7) | IC50 (NCI-H460; Homo sapiens, NCI-H460) | IC50 (SF-268; Homo sapiens, SF-268) | IC50 (MCF7; mcf7) | IC50 (NCI-H460; nci-h460) | IC50 (SF-268; sf-268)
1 | O=C(CC1(O)c2ccccc2-n2c1nc1ccccc1c2=O)c1ccccc1 (centres undefined) | > 50 µM | > 50 µM | > 50 µM |  |  | 
2 | CCC(=O)C(C)C1(O)c2ccccc2-n2c1nc1ccccc1c2=O (centres undefined) | 15.8 µM | 13.9 µM | 24.8 µM |  |  | 
3 | CCCCCCCCC(=O)CC1(O)c2ccccc2-n2c1nc1ccccc1c2=O (centres undefined) | 40.5 µM | 42.8 µM | > 50 µM |  |  | 
4 | O=C1CCCC1C1(O)c2ccccc2-n2c1nc1ccccc1c2=O (stereo in doubt; 11) |  |  |  | 19.7 µM | 19.1 µM | 34.8 µM
5 | O=C1CCCC1C1(O)c2ccccc2-n2c1nc1ccccc1c2=O (stereo in doubt; 12) | 20.7 µM | 20.6 µM | 33.9 µM |  |  | 
6 | O=C1/C(=c2\c3ccccc3n3c(=O)c4ccccc4nc23)Nc2ccccc21 [CANDIDINE] | > 50 µM | > 50 µM | > 50 µM |  |  | 
7 | COC(=O)C1(O)c2ccccc2N=C2C(=O)c3ccccc3N21 (centres undefined) [METHYLISATOID] | > 50 µM | > 50 µM | > 50 µM |  |  | 
8 | O=C1c2c(O)cccc2-n2c1nc1ccccc1c2=O [PHAITANTHRIN C] | > 50 µM | > 50 µM | > 50 µM |  |  | 
9 | O=C1OC[C@@]23Nc4ccccc4C(=O)N2c2ccccc2[C@@H]13 [PHAITANTHRIN D] | > 50 µM | > 50 µM | > 50 µM |  |  | 
10 | COC(=O)c1c2ccccc2n2c(=O)c3ccccc3[nH]c12 [PHAITANTHRIN E] | > 50 µM | > 50 µM | > 50 µM |  |  | 
11 | CC(=O)CC1(O)c2ccccc2-n2c1nc1ccccc1c2=O (centres undefined) [PHAITANTHRINS A] | 28.2 µM | 31.4 µM | 45.4 µM |  |  | 
12 | COC(=O)CC1(O)c2ccccc2-n2c1nc1ccccc1c2=O (centres undefined) [PHAITANTHRINS B] | > 50 µM | > 50 µM | > 50 µM |  |  | 
13 | O=C1c2ccccc2-n2c1nc1ccccc1c2=O [TRYPTANTHRIN] | 11.1 µM | 9 µM | 24.4 µM |  |  | 
